According to EP0377457A1, “Thiazole compounds, processes for the preparation thereof, and pharmaceutical composition comprising the same” (FUJISAWA PHARMACEUTICAL CO., LTD., priority 1989, dated 1990):
Structures can show the parent of a compound that is named as a salt. Where two headings read alike, the source gives them in different places.

Tests used:
[1] = system: rats; assay: Acute toxicity; format: in vivo; conditions: peroral administration, 100 mg/kg
[2] = system: platelet aggregation; assay: Platelet aggregation ex vivo (arachidonic acid-induced, PRP after oral administration); format: in vivo, guinea-pigs; conditions: Cavia porcellus, 6 h, dose 1.0 mg/kg oral, blood collected six hours after administration, arachidonic acid final 50 µM as inducer
Experimental: Male Hartley guinea-pigs weighing about 300 g were used after 24 hours fasting. Six hours after oral administration of the test compound or vehicle of test compound (control), blood was collected into a tube containing 0.1 vol. of 3.8% sodium citrate and prepared platelet rich plasma (PRP).
To the 250 µl of PRP, 5 µl of arachidonic acid (final 50 µM) was added as an aggregation inducer. Aggregation was measured by using an aggregometer (NKK HEMA-TRACER 1).

[3] = Half-life period; conditions: rat, in vivo; rats, intravenous administration (0.32 mg/kg), (,B-phase)
[4] = system: stomachs of the rats; assay: Effect on stomach of rats; format: in vivo; conditions: 100 mg/kg orally, rats treated as in the antiinflammatory test
[5] = system: Paw edema; assay: Antiinflammatory activity (carrageenin paw edema); format: in vivo, Sprague-Dawly rats; conditions: 100 mg/kg orally 60 minutes before carrageenin; edema volume at 3 hours
Experimental: Five male Sprague-Dawly rats weighing 160-180 g were used per group. Paw edema was induced by subplantar injection of 1 % carrageenin (0.1 ml/rat) into the right hind paw. The test drug was suspended in 0.5% methylcellulose and administered orally 60 minutes before phlogogen. Paw volume was measured with plethysmometer (Ugo Bazil Co., Ltd.) by water displacement immersing the paw to the lateral malleolus. The difference of paw volume before and 3 hours after the phlogogen was designated as edema volume. The data were analyzed statistically by student's t-test.

[6] = molecular target: T1, cyclooxygenase (Ovis aries, UniProt P05979); assay: Assay for cyclooxygenase inhibition; format: biochemical, sheep
T1 construct: 240 µg of the microsomal enzyme; tissue Ran Biochem (Israel); host or cells: sheep seminal vesicles, microsomal fraction
T1 sequence (P05979 25-600): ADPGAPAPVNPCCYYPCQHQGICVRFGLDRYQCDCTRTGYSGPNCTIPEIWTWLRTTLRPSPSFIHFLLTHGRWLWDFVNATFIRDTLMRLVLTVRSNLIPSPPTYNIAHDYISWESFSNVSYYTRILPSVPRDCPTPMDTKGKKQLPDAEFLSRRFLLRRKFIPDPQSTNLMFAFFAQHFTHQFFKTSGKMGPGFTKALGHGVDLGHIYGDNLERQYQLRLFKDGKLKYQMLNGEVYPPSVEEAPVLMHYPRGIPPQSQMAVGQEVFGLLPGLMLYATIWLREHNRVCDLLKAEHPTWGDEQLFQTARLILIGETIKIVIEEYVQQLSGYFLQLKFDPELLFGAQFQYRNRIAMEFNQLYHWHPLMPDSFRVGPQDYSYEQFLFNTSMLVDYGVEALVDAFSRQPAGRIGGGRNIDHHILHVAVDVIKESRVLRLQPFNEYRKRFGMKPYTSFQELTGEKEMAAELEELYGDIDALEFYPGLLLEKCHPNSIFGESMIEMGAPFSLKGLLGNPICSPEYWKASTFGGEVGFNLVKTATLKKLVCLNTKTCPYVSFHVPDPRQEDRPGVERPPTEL
Experimental: The microsomal fraction from sheep seminals vesicles was purchased from Ran Biochem (Israel). The reaction mixture consisted of 0.1 M Tris-HCI, pH 7.6, 1 mM epinephrine, 2 mM glutathione, 240 µg of the microsomal enzyme, in a total volume of 200 µl. The reaction was started by the addition of 10 µM (^14C) arachidonic acid (120 nM), and incubated at 37° C for 5 min. The reaction was stopped by the addition of 50 µl of 1 N HCI. The synthesized prostaglandins were extracted with 1.5 ml of ethylacetate. The ethyl acetate layer was dried with nitrogen gas, and dissolved in 100 µl of methanol. Ten microliters of the methanol solution were applied to a thin-layer plate (Merck, Kiesegel 60F), and developed with ethylacetate : acetate (100:2). The PGE2 fraction was scraped out, and the radioactivity was counted with 10 ml of toluene scintilator.
The activity of the test compound was expressed as IC50 value i.e. doses required to inhibit the activity of cyclooxygenase by 50%.

[7] = system: SRS-A synthesis or release from peritoneal exudate cells; assay: Anti-SRS-A activity; format: cell-based, SD rats; conditions: rat peritoneal exudate cells; Ca++-ionophore 1 µg/ml; SRS-A read on isolated guinea pig ileum; read-out: Inhibitory Concentration IC50
Experimental: Peritoneal exudate cells were collected from glycogen-injected SD rats and adjusted to 1 x 10^7 cells/ml with Tyrode's solution. One milliliter of the cell suspension was incubated with indomethacin (10 µg/ml) and each varied concentration of the test compound for 10 minutes and, then, further incubated with Ca^++ - ionophore (A123187, 1 µg/ml) for 10 minutes. The supernatant was collected by centrifugation and the SRS-A (slow-reacting substance of anaphylaxis) activity was determined in terms of contractility of the isolated guinea pig ileum in the presence of mepyramine, atropine and methysergide.
The results were expressed in terms of the 50% inhibitory concentration to SRS-A synthesis or release from peritoneal exudate cells.

[8] = system: isolated rat aorta; assay: Relaxation effect on isolated rat aorta
Experimental: Contraction was induced by addition of KCt solution (final concentration was 30 mM).

[9] = system: human washed platelets; assay: Thrombin induced aggregation in human washed platelets; format: cell-based; conditions: Platelet, concentration 1.0 x 10^-5 M, thrombin final conc. 0.3-0.5 U/ml
Experimental: Blood was drawn from healthy volunteers into a plastic tube containing 1/10 volume of 3.8% sodium citrate and centrifuged at 120 g for 10 min to obtain platelet rich plasma (PRP). An equal volume of 25 mM Tris-HCI buffer (pH 7.4) containing 130 mM NaCl and 1.5 mM EDTA (buffer A) was added to the PRP, mixed and centrifuged at 1500 g for 10 min. The platelet pellet was suspended in buffer A and centrifuged at 1500 g for 5 min. The platelets were resuspended in 25 mM Tris-HCI buffer (pH 7.4) containing 130 mM NaCl and 0.3 mM EDTA and recentrifuged at 1500 g for 5 min. The platelets were finally suspended in Tyrode solution containing 0.3 % bovine serum albumin and the platelet count was adjusted to 3 x 10^8/ml. To 247.5 µl of platelet suspension, 2.5 µl of drug solution was added and incubated for 2 min at 37° C prior to addition of thrombin solution (final conc. 0.3-0.5 U/ml). Platelet aggregation was turbidometrically measured using a HEMATRACER 1.

[10] = system: platelet aggregation; assay: Platelet aggregation in vitro (collagen-induced, human PRP); format: cell-based; conditions: collagen (0.5 µg/ml) as inducer
Experimental: (§1) Platelet rich plasma (PRP) which contains 6 - 7 x 10^8 platelets/ml and 3 x 10^8 platelets/ml was prepared from guinea-pig and human blood, respectively. To the each 245 µℓ of PRP, 5 µℓ of drug solution^* was added, and then stirred for 2 min at 37° C. To the solution, […] of collagen (0.5 µg/mℓ) was added as an aggregation inducer. Aggregation was measured by using an aggregometer (NKK HEMA-TRACER 1). Activities of inhibitors (test compounds) were expressed as IC50 values i.e. doses required to inhibit the platelet aggregation responses by 50%.
(§2) Drug solution^* --- Test compounds were dissolved in a mixture of ethanol, polyethylene glycol and saline (1:1:2, V/V/V) and dimethylsulfoxide for guinea-pig and human blood, respectively.

[11] = system: platelet aggregation; assay: Platelet aggregation in vitro (collagen-induced, guinea-pig PRP); format: cell-based; conditions: Cavia porcellus, collagen (0.5 µg/ml) as inducer
Experimental: as §1, §2

[12] = contraction induced by KCl 30 mM, maximum relaxation by papaverine, read-out: ED50 (the source's name)

Q: Which results are given for `COc1ccc(-c2nc(C(=O)N3CCN(C)CC3)sc2-c2ccc(OC)cc2)cc1.Cl` [Example 1, 4,5-bis(4-methoxyphenyl)-2-(4-methylpiperazin-1-yl)carbonylthiazole hydrochloride]?
A: acute toxicity (dead) [1]: the dead at dose of 100 mg/kg could not be observed; inhibition at 1 mg/kg [2]: 100%; half-life [3]: 4.51 h; lesion in the stomachs [4]: No lesion was observed; Inhibition (%) (Dose : 100 mg/kg) [5]: 36.2%; IC50 [6]: 430 nM; IC50 [7]: 6.28 µg/mL; EC50 ([8]; read-out: ED50 (M)): 6.2e-06 M

Q: Which EC50 [8, 12] does the source give for `COc1ccc(-c2nc(C(=O)N(C)C)sc2-c2ccc(OC)cc2)cc1` [Example 3, 4,5-bis(4-methoxyphenyl)-2-(N,N-dimethylcarbamoyl) thiazole] here?
A: The EC50 was 3e-06 M.

Q: With `COc1ccc(-c2nc(CNC(=N)N)sc2-c2ccc(OC)cc2)cc1` [Example 12, 4,5-bis(4-methoxyphenyl)-2-guanidinomethylthiazole hydrochloride] as the molecule, how does the inhibition at 10 µM [9] read?
A: The inhibition at 10 µM was 100%.

Q: What does the source list for `COc1ccc(-c2nc(NC(=N)N(C)C)sc2-c2ccc(OC)cc2)cc1` [Example 14, 4,5-bis(4-methoxyphenyl)-2-(3,3-dimethylguanidino)thiazole hydrochloride]?
A: IC50 [10]: 560 nM; IC50 [11]: 42 nM; EC50 [8, 12]: 4.8e-06 M

Q: With `CN=C(NC)Nc1nc(-c2ccc(OC)cc2)c(-c2ccc(OC)cc2)s1` [Example 21, 4,5-Bis(4-methoxyphenyl)-2-(2,3-dimethylguanidino)thiazole methanesulfonate] as the molecule, how does the EC50 [8, 12] read?
A: The EC50 was 2.4e-06 M.
